Reference: article PMC7617869, “Molecular glues that inhibit deubiquitylase activity and inflammatory signaling” (Nature Structural & Molecular Biology, 2025)
Values joined by “and” are separate entries in the source; they are usually repeats but may differ in a detail not shown here. Equal values may be shown once.

Biological target: T1, BRCC36–Abraxas 2 complex (Homo sapiens, UniProt P46736+Q15018)
T1 construct: made in house; host or cells: Spodoptera frugiperda (Sf9) insect cells, MultiBac
Experiment: BRCC36–Abraxas 2 IQF DUB activity assay
Assay type: biochemical
Details: for Normalised V0: Fig. 1e, BRCC36-Abraxas2
Protocol: IQF assays were performed in DUB reaction buffer containing 50 mM HEPES–NaOH pH 7.0, 100 mM NaCl, 0.1 mg ml^−1 BSA, 1 mM DTT and 0.03% v/v Brij-35. […] The final concentration of BRISC WT, all BRISC mutants, HsBRISCΔLoop, MmBRISC and DrBRISCΔNΔC was 1 nM. Other enzymes were tested at the following concentrations: 5 nM ARISC (FL), 10 nM CfBRISCΔNΔC, 250 nM AMSH* (ref. [43]), 500 nM USP2 and 1 μM trypsin (Sigma, 9002-07-7). For Michaelis–Menten experiments, 1 nM BRISC with 0–1 μM IQF K63-linked diubiquitin substrate was used. Michaelis–Menten analyses and Lineweaver–Burk plots were calculated using GraphPad Prism (version 9.0).
To assess enzymatic activity, BRISC complexes were diluted to concentrations between 1 nM and 50 nM. […] Then, 20-μl enzyme reactions were carried out in 384-well black flat-bottom low-flange plates (Corning, 35373). DUB activity was measured using IQF K63-linked diubiquitin (LifeSensors, DU6303) at 50 nM. Cleaved diubiquitin was monitored by measuring fluorescence intensity (excitation, 544 nm; emission, 575 nm; dichroic mirror, 560 nm). Fluorescence intensity was measured every minute for 30 min at 30 °C. Fluorescence intensity units were plotted against time to generate a linear reaction progress curve, where the initial velocity (V0) corresponds to the gradient of the curve (typically achieved within 15 min). IC50 values were calculated using the GraphPad Prism (version 9.0) built-in dose–response equation for inhibitor concentration versus response (variable slope).

Normalised V0 (JMS-175-2 0.02 μM): 0.9193 and 1.28 and 0.6661
Normalised V0 (JMS-175-2 0.0399999 μM): 0.9382 and 1.101 and 1.021
Normalised V0 (JMS-175-2 0.0599997 μM): 0.9046 and 1.264
Normalised V0 (JMS-175-2 0.0799994 μM): 0.9962 and 1.366 and 1.351
Normalised V0 (JMS-175-2 0.119998 μM): 0.9007 and 1.233 and 1.5528
Normalised V0 (JMS-175-2 0.199996 μM): 1.097 and 1.27 and 0.9275
Normalised V0 (JMS-175-2 0.499975 μM): 0.8805 and 1.153 and 1.01
Normalised V0 (JMS-175-2 0.799936 μM): 0.7961 and 1.246 and 1.323
Normalised V0 (JMS-175-2 1.25984 μM): 1.021 and 1.5206 and 1.034
Normalised V0 (JMS-175-2 1.9996 μM): 0.8007 and 0.8599 and 1.275
Normalised V0 (JMS-175-2 3.159 μM): 1.12 and 1.1529 and 0.9992
Normalised V0 (JMS-175-2 5.19739 μM): 0.8446 and 1.053 and 1.407
Normalised V0 (JMS-175-2 7.99364 μM): 0.9387 and 0.8597 and 1.27
Normalised V0 (JMS-175-2 12.7839 μM): 0.8621 and 1.3106 and 1.2815
Normalised V0 (JMS-175-2 19.96 μM): 0.8364 and 1.032 and 1.13
Normalised V0 (JMS-175-2 31.4999 μM): 0.8279 and 0.9824 and 0.8224
Normalised V0 (JMS-175-2 50.147 μM): 0.8729 and 0.9534 and 1.051
Normalised V0 (JMS-175-2 79.7601 μM): 0.848 and 0.9243 and 1.386
Normalised V0 (JMS-175-2 125.99 μM): 0.7998 and 0.9987 and 1.073
inhibition of BRCC36–Abraxas 2 complex (minimally active complex): did not inhibit
Compound: O=C(NC1CCNCC1)c1nn(C(=O)c2c(Cl)cccc2Cl)cc1NC(=O)c1c(Cl)cccc1Cl [JMS-175-2]
